Our source for the TGI and GI50 values is PubChem BioAssay (NCI).

Assay in all cases: NCI-60 cell line screen, 48 h
Experiment [1] has as its system K-562 leukemia.
Experiment [2] relates to KM12 colon.
Experiment [3] concerns OVCAR-3 ovarian.
Experiment [4] deals with OVCAR-8 ovarian.
The test system of experiment [5] is RPMI-8226 leukemia.
In experiment [6] the test system is SK-MEL-5 melanoma.
The test system of experiment [7] is SN12C renal.
The subject of experiment [8] is SW-620 colon.
Experiment [9] deals with UACC-62 melanoma.
Experiment [10] has as its system MALME-3M melanoma.

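Five concentrations, 48 hours, 96-well plates. Abbreviation: GI50, concentration required for 50% inhibition of growth. TGI is the concentration that stops growth completely.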

In the case of `COC(=O)NC1(NC(=O)OC)NC(=O)c2cc(OC)c(OC)cc2N1`, the TGI is greater than 100 µM in experiment [1]; greater than 100 µM in experiment [2]; 67.6 µM in [3]; greater than 100 µM in [4]; greater than 100 µM in experiment [5]; greater than 100 µM in experiment [6]. For the same compound, the TGI in [7], in [8] and in [9] was greater than 100 µM in each case.

As to `CCOC(=O)C1(C#N)C(c2ccccc2)CC(O)(c2ccc([N+](=O)[O-])cc2)C(C(=O)c2ccc([N+](=O)[O-])cc2)C1c1ccccc1` (stereo unspecified), the TGI in experiment [1], in experiment [2], in [10], in experiment [3], in [4] and in experiment [5] was greater than 100 µM throughout. Further, the TGI in [7], in experiment [8] and in [9] was greater than 100 µM throughout.

With `CCC(=O)C1(c2ccccc2)CCN(C)CC1`, the TGI in [1], in experiment [2], in experiment [10], in [4], in experiment [5] and in experiment [6] was greater than 100 µM in each case. Besides, the TGI in [8] was greater than 100 µM.

In the case of `O=C(CSc1nc2ccccc2nc1-c1ccccc1)Nc1ccc(Cl)cc1`, the GI50 in experiment [2] was 59.4 µM; in [10], 27.2 µM; in [3] it was 13.1 µM; in experiment [4] it was 25.5 µM; in [5], 92.3 µM; in experiment [6], 19.3 µM. In addition, the figures for the GI50 in experiment [7], in experiment [8] and in experiment [9] were 22.6 µM, 38.9 µM and 20.7 µM, respectively. For the same compound, the TGI in experiment [2] was greater than 100 µM; in [10] it was 78 µM; in [3] it was 40.3 µM; in experiment [4] it was greater than 100 µM; in experiment [5], greater than 100 µM; in experiment [6], greater than 100 µM. For the same compound, the TGI in experiment [7] is 99.2 µM; in [8] it was greater than 100 µM; in [9], greater than 100 µM.

On to `O=C1/C=C/[C@@H](O)[C@@H]2C[C@@H](O)C[C@H]2/C=C/CCC[C@H](CCc2ccc(C(F)(F)F)cc2)O1`, for which the GI50 in experiment [1] is 0.444 µM; in experiment [10], 0.364 µM; in experiment [3] it was 0.264 µM; in [4], 0.219 µM; in experiment [5], 0.282 µM; in experiment [6], 0.0257 µM. The GI50 in experiment [7] is 0.329 µM; in experiment [8] it was 0.297 µM; in experiment [9], 0.169 µM. Further, the TGI in experiment [1] is greater than 100 µM; in experiment [10], 2.88 µM; in experiment [3], 0.69 µM; in experiment [4], greater than 100 µM; in [5] it was 0.806 µM; in [6], 0.0647 µM. Further, the TGI in [7] is greater than 36.5 µM; in [8], 1.27 µM; in experiment [9] it was 17.3 µM.

On to `O=c1cc(-c2ccccc2)oc2cc(OCC(O)COc3ccc4c(=O)cc(-c5ccccc5)oc4c3)ccc12`, for which the TGI in experiment [1], in [2], in [10], in experiment [3], in experiment [4] and in experiment [5] was greater than 100 µM each time. Further, the TGI in experiment [6], in [8] and in [9] was greater than 100 µM in each case.

Regarding `N#CC(/C(=N\NC(=O)c1ccncc1)C(=O)Nc1ccc([N+](=O)[O-])cc1[N+](=O)[O-])c1nc(-c2ccc(Br)cc2)cs1` (stereo unspecified), the TGI in experiment [1], in [2], in experiment [10], in experiment [3], in [4] and in experiment [5] was greater than 100 µM throughout. Also, the TGI in [6], in [8] and in experiment [9] was greater than 100 µM throughout.

As to `Cc1ccc2c(c1)C(C)Cc1c(ncnc1-n1cnc3cc(C)ccc31)N2C` (stereo unspecified), the GI50 in experiment [1] is 0.034 µM; in [2], 0.0368 µM; in experiment [10], 11 µM; in [4], 0.037 µM; in [5], 0.0406 µM; in experiment [6] it was 0.0324 µM. Besides, the GI50 in [7] was 0.086 µM; in experiment [8] it was 0.0417 µM; in [9] it was 0.086 µM. For the same compound, the TGI turned out to be 16.5 µM in [1]; 12.2 µM in [2]; 23.7 µM in experiment [10]; 15.8 µM in [4]; 3.89 µM in [5]; 0.165 µM in experiment [6]. The TGI in experiment [7] is 16.3 µM; in experiment [8] it was 15.9 µM; in experiment [9] it was 16.7 µM.

In the case of `COc1ccc(CCN2CCCN3C2=Nc2ccccc2S3(=O)=O)cc1`, the GI50 in experiment [1] was 0.196 µM; in experiment [2], 0.451 µM; in [4], 0.802 µM; in [5], 0.563 µM; in experiment [6] it was 0.357 µM; in experiment [7] it was 0.707 µM. Besides, the values for the GI50 in experiment [8] and in experiment [9] were 0.381 µM and 0.744 µM, respectively. The TGI in experiment [1] is greater than 100 µM; in experiment [2] it was greater than 100 µM; in [4], greater than 100 µM; in experiment [5] it was 53.5 µM; in experiment [6], 16.4 µM; in experiment [7], greater than 100 µM. Besides, the TGI in [8] and in experiment [9] was greater than 100 µM each time.

For the compound `NC(=NCCCC1(c2ccccc2)CCCC1)Nc1ccc(Cl)cc1`, the GI50 in experiment [1] was 1.55 µM; in [10], 1.69 µM; in experiment [3], 1.82 µM; in experiment [4], 1.9 µM; in experiment [5] it was 1.89 µM; in experiment [6], 1.58 µM. For the same compound, the GI50 in experiment [7] was 1.77 µM; in experiment [8], 1.85 µM; in experiment [9] it was 1.68 µM. Also, the TGI worked out at 4.45 µM in experiment [1]; 3.66 µM in [10]; 3.35 µM in experiment [3]; 3.8 µM in experiment [4]; 4.08 µM in experiment [5]; 2.93 µM in experiment [6]. Further, the figures for the TGI in [7], in experiment [8] and in experiment [9] were 3.37 µM, 3.85 µM and 3.2 µM, respectively.

Regarding `Nc1nc(Cl)cc(NCCCCCNc2cc(Cl)nc(N)n2)n1`, the TGI in experiment [1], in experiment [2], in [3], in experiment [4], in experiment [5] and in [6] was greater than 100 µM each time. Moreover, the TGI in [7] was greater than 100 µM; in experiment [8] it was greater than 100 µM; in experiment [9] it was 83.9 µM.

`CCOC(=O)C(Cc1c[nH]c2ccc([N+](=O)[O-])cc12)(NC(C)=O)C(=O)OCC`: the GI50 in [1] is 47.7 µM; in experiment [2], greater than 1000 µM; in experiment [10], 114 µM; in experiment [3], 75.3 µM; in experiment [4], 96.7 µM; in experiment [7], 502 µM. Further, the values for the GI50 in [8] and in experiment [9] were greater than 1000 µM and 40.5 µM, respectively. Besides, the TGI in experiment [1] is greater than 1000 µM; in [2] it was greater than 1000 µM; in experiment [10], greater than 1000 µM; in experiment [3] it was greater than 1000 µM; in experiment [4], greater than 870 µM; in [7] it was greater than 1000 µM. The TGI in experiment [8] and in experiment [9] was greater than 1000 µM throughout.

Consider `COc1cc(OC)c2ssc3c(OC)cc(OC)c4ssc1c2-c43`, for which the TGI in experiment [1], in experiment [2], in experiment [10], in experiment [3], in [4] and in [6] was greater than 100 µM each time. Further, the TGI in [7], in [8] and in experiment [9] was greater than 100 µM throughout.

For the compound `COc1c2ccoc2cc2oc(=O)ccc12`, the TGI in [1], in [10], in [3], in experiment [4], in experiment [5] and in experiment [6] was greater than 100 µM throughout. Further, the TGI in experiment [7], in [8] and in experiment [9] was greater than 100 µM in each case.

For the compound `CCOC(=O)Cc1nc2ccccc2s1`, the TGI in [1] is 71.9 µM; in [2], greater than 10 µM; in experiment [10], 31.2 µM; in experiment [3], greater than 10 µM; in experiment [4], 32.8 µM; in experiment [6], 48.5 µM. For the same compound, the TGI is 30.5 µM in experiment [7], 34.3 µM in experiment [8] and 33.3 µM in experiment [9].

Consider `COc1cc2c3c(c4ccc(OC)c(OC)c4c2cc1OC)CN1CCC[C@@H]1C3`, for which the TGI in experiment [1] was greater than 100 µM; in experiment [2], 0.965 µM; in [10], 0.509 µM; in experiment [3], 16.6 µM; in experiment [4] it was 0.264 µM; in experiment [6], 0.324 µM. Further, the TGI in experiment [7] was 18 µM; in experiment [8], greater than 47.7 µM; in [9], 0.35 µM.

Regarding `CCSC(SCC)c1cc2c(cc1Br)OCO2`, the TGI in [1] is 32.7 µM; in [2] it was greater than 100 µM; in experiment [3] it was 57.3 µM; in [4] it was greater than 100 µM; in experiment [5] it was 60.3 µM; in [6] it was 38.4 µM. Further, the TGI in experiment [7], in experiment [8] and in experiment [9] was greater than 100 µM in each case.

`Cc1nc2ccccn2c1NC(=O)NNC(=S)Nc1ccc(Br)cc1`: the GI50 in experiment [1] was 21.8 µM; in experiment [2] it was 35.4 µM; in experiment [3], 38.6 µM; in experiment [4], 63.8 µM; in experiment [5], 41.6 µM; in experiment [6], 47.7 µM. Moreover, the figures for the GI50 in experiment [7], in [8] and in experiment [9] were 35.9 µM, 39.8 µM and 27.8 µM, respectively. Further, the TGI in [1] was 54.6 µM; in experiment [2], greater than 100 µM; in experiment [3] it was 94.8 µM; in [4], greater than 100 µM; in experiment [5] it was greater than 100 µM; in [6], greater than 100 µM. The TGI in experiment [7], in [8] and in [9] was greater than 100 µM throughout.

In the case of `O=Nc1ccc(O)c2ccccc12`, the GI50 in [2] is 2.17 µM; in [10], 1.61 µM; in [3], 0.25 µM; in [4] it was 1.57 µM; in experiment [5], 2.4 µM; in experiment [6] it was 1.65 µM. Moreover, the values for the GI50 in [7], in [8] and in experiment [9] were 1.38 µM, 1.82 µM and 1.69 µM, respectively. Besides, the TGI in experiment [2] was 6.02 µM; in experiment [10], 3.62 µM; in experiment [3], 0.643 µM; in experiment [4], 5 µM; in experiment [5], 7.58 µM; in [6] it was 3.04 µM. In addition, the TGI in [7] is 3.22 µM; in experiment [8], 3.6 µM; in experiment [9] it was 3.37 µM.

Take `O=C(NCCc1ccccc1)C(c1ccccc1)(c1ccccc1)c1ccccc1`: the GI50 in [1] is 44.9 µM; in [2], 3.19 µM; in [3] it was 5.78 µM; in experiment [4] it was 1.62 µM; in experiment [5] it was 15.9 µM; in experiment [6], 8.97 µM. Also, the values for the GI50 in experiment [7], in [8] and in experiment [9] were 1.8 µM, 4.35 µM and 1.46 µM, respectively. Also, the TGI is greater than 100 µM in experiment [1]; 11.3 µM in experiment [2]; greater than 100 µM in [3]; 4.44 µM in [4]; greater than 100 µM in experiment [5]; 21.4 µM in experiment [6]. In addition, the results for the TGI in experiment [7], in [8] and in experiment [9] were 5.96 µM, greater than 100 µM and 14.6 µM, respectively.

Regarding `CC(C)C1C(=O)NC(CO)Cc2c[nH]c3c(C(c4c[nH]c5ccccc45)C(O)CO)ccc(c23)N1C` (stereo unspecified), the TGI in experiment [1], in experiment [2], in experiment [3], in experiment [4], in experiment [5] and in [6] was greater than 100 µM in each case. The TGI in experiment [7], in [8] and in experiment [9] was greater than 100 µM in each case.

For `COc1ccc2c(c1O)C(=O)C(CCC(=O)O)CC2` (stereo unspecified), the TGI in experiment [3], in experiment [4], in experiment [5], in experiment [6], in [7] and in experiment [8] was greater than 100 µM in each case. The compound further registered a TGI in experiment [9] greater than 100 µM.
